Source: patent publication US4864023A, “Pyrido(3,2,1-IJ)-1,3,4-benzoxadiazine derivatives” (priority 1988, dated 1989)
Converted amounts (≈) assume the structure as drawn. Like-named read-outs stand apart in the source and are kept apart here.

Columns and labels:
Test in all cases: in vitro antibacterial activity, standard agar dilution method
Format in all cases: cell-based
[1] = tested on: Serratia marcescens IFO 12648; conditions: IFO12648, aerobic, read-out: minimum inhibitory concentration (MIC)
[2] = tested on: Escherichia coli NIHJ JC-2; conditions: NIHJJC2, aerobic, read-out: minimum inhibitory concentration (MIC)
[3] = tested on: Staphylococcus aureus FDA 209P JC-1; conditions: FDA209P, read-out: minimum inhibitory concentration (MIC)
[4] = tested on: Staphylococcus epidermidis IFO 12993; conditions: IFO12993, aerobic, read-out: minimum inhibitory concentration (MIC)
[5] = tested on: Enterobacter cloacae NR 2946; conditions: NR2946, aerobic, read-out: minimum inhibitory concentration (MIC)
[6] = tested on: Proteus vulgaris OX19 ATCC 6898; conditions: ATCC6898, aerobic, read-out: minimum inhibitory concentration (MIC)
[7] = tested on: Enterobacter aerogenes NR 2945; conditions: Klebsiella aerogenes, NR2945, aerobic, read-out: minimum inhibitory concentration (MIC)
[8] = tested on: Enterococcus faecalis NR 2943; conditions: NR2943, aerobic, read-out: minimum inhibitory concentration (MIC)
[9] = tested on: Proteus rettgeri ATCC 14505; conditions: Providencia rettgeri, ATCC14505, aerobic, read-out: minimum inhibitory concentration (MIC)
[10] = tested on: Pseudomonas stutzeri IFO 12695; conditions: Stutzerimonas stutzeri, IFO12695, aerobic, read-out: minimum inhibitory concentration (MIC)
[11] = tested on: Bordetella bronchiseptica ATCC 4617; conditions: ATCC4617, aerobic, read-out: minimum inhibitory concentration (MIC)
Escherichia coli NR 2630 = tested on: Escherichia coli NR 2630
[12] = tested on: Alcaligenes faecalis IFO 13111; conditions: IFO13111, aerobic, read-out: minimum inhibitory concentration (MIC)
[13] = tested on: Staphylococcus aureus Smith; conditions: read-out: minimum inhibitory concentration (MIC)
[14] = tested on: Klebsiella pneumoniae FDA PCI 602; conditions: FDAPCI602, aerobic, read-out: minimum inhibitory concentration (MIC)
[15] = tested on: Pseudomonas aeruginosa A3; conditions: aerobic, read-out: minimum inhibitory concentration (MIC)
[16] = tested on: Staphylococcus epidermidis NR 2942; conditions: NR2942, aerobic, read-out: minimum inhibitory concentration (MIC)
[17] = tested on: Bacillus subtilis PCI 219; conditions: PCI219, aerobic, read-out: minimum inhibitory concentration (MIC)
[18] = tested on: Pseudomonas aeruginosa NR 2950; conditions: NR2950, aerobic, read-out: minimum inhibitory concentration (MIC)
[19] = tested on: Citrobacter freundii IFO 12681; conditions: IFO12681, aerobic, read-out: minimum inhibitory concentration (MIC)
[20] = tested on: Staphylococcus aureus NR 2855; conditions: NR2855; Staphylococcus aureus NR 2855; aerobic; agar dilution; read-out: minimum inhibitory concentration (MIC)
[21] = tested on: Salmonella typhimurium IFO 12529; conditions: Salmonella enterica, aerobic, read-out: minimum inhibitory concentration (MIC)
[22] = NR2630, Escherichia coli NR 2630, aerobic, agar dilution, read-out: minimum inhibitory concentration (MIC)
[23] = Staphylococcus aureus Smith, aerobic, agar dilution
[24] = Staphylococcus aureus FDA 209P JC-1, aerobic, agar dilution

Row | Structure (SMILES) | MIC [1] | MIC [2] | MIC [4] | MIC [5] | MIC [6] | MIC [7] | MIC [8] | MIC [9] | MIC [10] | MIC [11] | MIC (Escherichia coli NR 2630; [22]) | MIC [12] | MIC [14] | MIC [15] | MIC [16] | MIC [17] | MIC [18] | MIC [19] | MIC [20] | MIC [21] | further results
1 | CN1COc2c(N3CCC(Cl)C3)c(F)cc3c(=O)c(C(=O)O)cn1c23 (centres unmarked) [Example 59, 10-(3-chloro-1-pyrrolidinyl)-9-fluoro-3-methyl-7-oxo-2,3-dihydro-7H-pyrido[3,2,1-ij]-1,3,4-benzoxadiazine-6-carboxylic acid] | 3.13 µg/mL (≈ 8.51 µM) | 1.56 µg/mL (≈ 4.24 µM) | 0.39 µg/mL (≈ 1.06 µM) | 0.78 µg/mL (≈ 2.12 µM) | 0.2 µg/mL (≈ 0.544 µM) | 0.78 µg/mL (≈ 2.12 µM) | 3.13 µg/mL (≈ 8.51 µM) | 3.13 µg/mL (≈ 8.51 µM) | 1.56 µg/mL (≈ 4.24 µM) | 3.13 µg/mL (≈ 8.51 µM) | 0.39 µg/mL (≈ 1.06 µM) | 6.25 µg/mL (≈ 17 µM) | 3.13 µg/mL (≈ 8.51 µM) | 3.13 µg/mL (≈ 8.51 µM) | 0.2 µg/mL (≈ 0.544 µM) | 0.0065 µg/mL (≈ 0.0177 µM) | 25 µg/mL (≈ 68 µM) | 1.56 µg/mL (≈ 4.24 µM) | 0.1 µg/mL (≈ 0.272 µM) | 1.56 µg/mL (≈ 4.24 µM) | MIC ([3]; Staphylococcus aureus): 0.39 µg/mL (≈ 1.06 µM); MIC [13, 23]: 0.05 µg/mL (≈ 0.136 µM)
2 | CC1Oc2c(N3CCN(C)CC3)c(F)cc3c(=O)c(C(=O)O)cn(c23)N1C (centres unmarked) [Example 26] | 1.56 µg/mL (≈ 4.14 µM) | 0.78 µg/mL (≈ 2.07 µM) | 3.13 µg/mL (≈ 8.32 µM) | 0.78 µg/mL (≈ 2.07 µM) | 0.39 µg/mL (≈ 1.04 µM) | 0.2 µg/mL (≈ 0.531 µM) | 25 µg/mL (≈ 66.4 µM) | 6.25 µg/mL (≈ 16.6 µM) | 0.78 µg/mL (≈ 2.07 µM) | 12.5 µg/mL (≈ 33.2 µM) | 0.2 µg/mL (≈ 0.531 µM) | 12.5 µg/mL (≈ 33.2 µM) | 3.13 µg/mL (≈ 8.32 µM) | 6.25 µg/mL (≈ 16.6 µM) | 3.13 µg/mL (≈ 8.32 µM) | 0.78 µg/mL (≈ 2.07 µM) | 50 µg/mL (≈ 133 µM) | 0.78 µg/mL (≈ 2.07 µM) | 1.56 µg/mL (≈ 4.14 µM) | 0.78 µg/mL (≈ 2.07 µM) | MIC [3, 24]: 3.13 µg/mL (≈ 8.32 µM); MIC [13, 23]: 3.13 µg/mL (≈ 8.32 µM)
3 | CC1Oc2c(N3CCNCC3)c(F)cc3c(=O)c(C(=O)O)cn(c23)N1C (centres unmarked) [Example 25] | 3.13 µg/mL (≈ 8.64 µM) | 0.78 µg/mL (≈ 2.15 µM) | 6.25 µg/mL (≈ 17.2 µM) | 0.78 µg/mL (≈ 2.15 µM) | 0.1 µg/mL (≈ 0.276 µM) | 0.39 µg/mL (≈ 1.08 µM) | 100 µg/mL (≈ 276 µM) | 25 µg/mL (≈ 69 µM) | 0.39 µg/mL (≈ 1.08 µM) | 100 µg/mL (≈ 276 µM) | – | 50 µg/mL (≈ 138 µM) | 3.13 µg/mL (≈ 8.64 µM) | 3.13 µg/mL (≈ 8.64 µM) | 6.25 µg/mL (≈ 17.2 µM) | 0.78 µg/mL (≈ 2.15 µM) | 50 µg/mL (≈ 138 µM) | 0.78 µg/mL (≈ 2.15 µM) | 12.5 µg/mL (≈ 34.5 µM) | 0.2 µg/mL (≈ 0.552 µM) | MIC [3, 24]: 6.25 µg/mL (≈ 17.2 µM); MIC (Escherichia coli NR 2630; Escherichia coli, NR2630, read-out: minimum inhibitory concentration (MIC)): 0.39 µg/mL (≈ 1.08 µM); MIC [13, 23]: 1.56 µg/mL (≈ 4.31 µM)
4 | CCNC1CCN(c2c(F)cc3c(=O)c(C(=O)O)cn4c3c2OCN4C)C1 (centres unmarked) [Example 32] | 0.39 µg/mL (≈ 1.04 µM) | 0.1 µg/mL (≈ 0.266 µM) | 0.39 µg/mL (≈ 1.04 µM) | 0.1 µg/mL (≈ 0.266 µM) | 0.025 µg/mL (≈ 0.0664 µM) | 0.025 µg/mL (≈ 0.0664 µM) | 6.25 µg/mL (≈ 16.6 µM) | 1.56 µg/mL (≈ 4.14 µM) | 0.1 µg/mL (≈ 0.266 µM) | 1.56 µg/mL (≈ 4.14 µM) | 0.025 µg/mL (≈ 0.0664 µM) | 1.56 µg/mL (≈ 4.14 µM) | 0.39 µg/mL (≈ 1.04 µM) | 0.39 µg/mL (≈ 1.04 µM) | 0.39 µg/mL (≈ 1.04 µM) | 0.05 µg/mL (≈ 0.133 µM) | 3.13 µg/mL (≈ 8.32 µM) | 0.1 µg/mL (≈ 0.266 µM) | 0.39 µg/mL (≈ 1.04 µM) | 0.025 µg/mL (≈ 0.0664 µM) | MIC [3, 24]: 0.2 µg/mL (≈ 0.531 µM); MIC [13, 23]: 0.1 µg/mL (≈ 0.266 µM)
5 | CN1COc2c(N3CCN(CS(=O)(=O)O)CC3)c(F)cc3c(=O)c(C(=O)O)cn1c23 [Example 52, disodium 9-fluoro-3-methyl-7-oxo-10-[4-(sulfonatomethyl)-1-piperazinyl]-2,3-dihydro-7H-pyrido-[3,2,1-ij]-1,3,4-benzoxadiazine-6-carboxylate] | 0.2 µg/mL | 0.05 µg/mL | 1.56 µg/mL | 0.05 µg/mL | 0.025 µg/mL | 0.025 µg/mL | 25 µg/mL | 0.2 µg/mL | 0.05 µg/mL | 6.25 µg/mL | 0.025 µg/mL | 12.5 µg/mL | 0.2 µg/mL | 0.2 µg/mL | 1.56 µg/mL | 0.2 µg/mL | 1.56 µg/mL | 0.025 µg/mL | 3.13 µg/mL | 0.025 µg/mL | MIC ([3]; Staphylococcus aureus): 0.39 µg/mL; MIC ([13]; Staphylococcus aureus): 0.39 µg/mL
